36 molecules from US11001590B2, “Pyrazolopyrimidine derivatives” (BAYER ANIMAL HEALTH GMBH, priority 2016, dated 2021) can be followed below.

System in the first series: not listed separately
Nature of the series: log P by HPLC on reversed phase columns (Method L0; [a] acidic, [b] neutral range).
Details: not given
`CC(C)c1c(C(=O)N[C@H]2CCc3ccccc32)cnc2c(-c3cc(Cl)cc(Cl)c3)c(C(F)(F)F)nn12` [Example 167] showed a chromatographic logP of 6.06.
Molecule `Cc1nn2c(C(C)C)c(C(=O)NC3CCCc4ccccc43)cnc2c1-c1cccc(C(F)(F)F)c1` (stereo not drawn) [Example 2] came in with a chromatographic logP of 5.59.
Still for that read-out and setting: the result for `Cc1nn2c(C(C)C)c(C(=O)N[C@H]3CCc4ccccc43)cnc2c1-c1cc(F)cc(C(F)(F)F)c1` [Example 292] reads 5.6; that for `Cc1nn2c(C(C)C)c(C(=O)N[C@H]3CCc4ccccc43)cnc2c1-c1ccc(N2CCOCC2)cc1` [Example 326], 4.2; that for `Cc1nn2c(C(C)C)c(C(=O)N[C@H]3CCc4ccccc43)cnc2c1-c1cnn(C)c1` [Example 303], 3.13.
Same read-out and setting: the result for `COCc1c(C(=O)N[C@H]2CCc3ccccc32)cnc2c(-c3cccc(C(F)(F)F)c3)c(C)nn12` [Example 305] reads 4.52.
Same read-out and setting: to `Cc1nn2c(C)c(C(=O)N[C@H]3CCCc4ccccc43)cnc2c1-c1cc(Cl)cc(Cl)c1` [Example 61] belongs 5.29; to `COc1ccc(-c2c(C)nn3c(C(C)C)c(C(=O)N[C@H]4CCc5ccccc54)cnc23)cc1` [Example 333], 4.43.
In the case of `Cc1nn2c(C(C)C)c(C(=O)N[C@H]3CCc4ccccc43)cnc2c1-c1ccncc1` [Example 318], the chromatographic logP turned out to be 1.84.
The same measure, in the same setting: to `Cc1nn2c(C(C)C)c(C(=O)N[C@H]3CCCc4ccccc43)cnc2c1-c1ccc(C(C)C)cc1` [Example 126] belongs 6.01; to `Cc1nn2c(C(C)C)c(C(=O)N[C@H]3CCCc4ccccc43)cnc2c1-c1cc(Cl)cc(Cl)c1` [Example 7], 6.39.
Same read-out and setting: the result for `Cc1nn2c(C(C)C)c(C(=O)N[C@H]3CCc4ccccc43)cnc2c1-c1ccc2c(c1)OC(F)(F)O2` [Example 123] reads 5.25.
The same measure, in the same setting: the result for `Cc1nn2c(C(C)C)c(C(=O)N[C@H]3CCc4ccccc43)cnc2c1-c1cncnc1` [Example 296] reads 2.99.
Regarding `CCc1c(C(=O)N[C@H]2CCc3ccccc32)cnc2c(-c3cccc(C(F)(F)F)c3)c(C)nn12` [Example 306], the chromatographic logP turned out to be 4.86.
`Cc1nn2c(C(C)C)c(C(=O)N[C@H]3CCc4ccccc43)cnc2c1-c1ccc(C#N)c(C(F)(F)F)c1` [Example 293] registered a chromatographic logP of 4.97.
On the same count and under the same terms, to `CCOc1ccc(-c2c(C)nn3c(C(C)C)c(C(=O)N[C@H]4CCc5ccccc54)cnc23)cc1` [Example 339] belongs 4.87.
`Cc1nn2c(C(C)C)c(C(=O)N[C@H]3CCCc4ccccc43)cnc2c1-c1cc(Cl)cc(C(F)(F)F)c1` [Example 124] yielded a chromatographic logP of 6.36.
Still for that read-out and setting: the result for `Cc1c(C(=O)N[C@H]2CCc3ccccc32)cnc2c(-c3ccccc3Cl)c(C(F)(F)F)nn12` [Example 81] reads 4.24.
Same read-out and setting: to `Cc1nn2c(C3CC3)c(C(=O)N[C@H]3CCOc4ccccc43)cnc2c1-c1cc(F)cc(F)c1F` [Example 557] belongs 3.72; to `Cc1nn2c(C)c(C(=O)N[C@H]3CCc4ccccc43)cnc2c1-c1cccc(Cl)c1` [Example 59], 4.12.

Still in this series, the particulars now being: HPLC on reversed phase columns (Method L0).
As for `COc1c(F)cc(F)c(-c2c(C)nn3c(C(C)C)c(C(=O)N[C@H]4CCOc5ccccc54)cnc23)c1F` [Example 235], the “log P” value was 4.38.
Same read-out and setting: to `Cc1nn2c(C(C)C)c(C(=O)N[C@H]3CCCc4ccccc43)cnc2c1-c1cnn(CC(F)(F)F)c1` [Example 359] belongs 4.11; to `Cc1nn2c(C(C)C)c(C(=O)N[C@H]3CCc4ccccc43)cnc2c1-c1cnn(CC(F)(F)F)c1` [Example 310], 3.81; to `Cc1nn2c(C(C)C)c(C(=O)NC3CCOc4ccc(F)cc43)cnc2c1-c1c(F)cccc1Cl` (racemic) [Example 254], 4.45.

The same series, now with this note: HPLC on reversed phase columns (Method L0); last column of Table 1, column head not shown.
In the case of `Cc1nn2c(CN(C)C)c(C(=O)N[C@H]3CCOc4ccccc43)cnc2c1-c1cccc(Cl)c1Cl` [Example 523], the lipophilicity (log P) amounted to 2.17.
Take `Cc1nn2c(N(C)CCS(C)(=O)=O)c(C(=O)N[C@H]3CCOc4ccccc43)cnc2c1-c1cc(Cl)cc(Cl)c1` [Example 541]: the “log P” value came out at 3.29.
Still for that read-out and setting: the result for `Cc1nn2c(C3CC3)c(C(=O)N[C@H]3CCOc4ccccc43)cnc2c1-c1cnn(CC(F)(F)F)c1` [Example 468] reads 2.95.
Still for that read-out and setting: to `Cc1nn2c(NC3CC3)c(C(=O)N[C@H]3CCOc4ccccc43)cnc2c1-c1cc(F)cc(F)c1` [Example 539] belongs 4.46; to `CSCCN(C)c1c(C(=O)N[C@H]2CCOc3ccccc32)cnc2c(-c3cccc(Cl)c3Cl)c(C)nn12` [Example 529], 4.69; to `Cc1nn2c(N(C)CC[S+](C)[O-])c(C(=O)NC3CCOc4ccccc43)cnc2c1-c1cc(Cl)cc(Cl)c1` (mixture of isomers) [Example 540], 2.88.

Staying with this series, now noted: HPLC on reversed phase columns, Method L0, [a] acidic range.
Consider `Cc1ccc2c(c1)[C@@H](NC(=O)c1cnc3c(-c4ccccc4F)c(C)nn3c1C(C)C)CCC2` [Example 110], for which the “logP (Method L0) [a]” value was found to be 5.16.
Still for that read-out and setting: the result for `Cc1nn2c(C(C)C)c(C(=O)N[C@H]3CCOc4ccccc43)cnc2c1-c1ccc(C(F)(F)F)c(F)c1` [Example 187] reads 4.85; that for `Cc1nn2c(C(C)C)c(C(=O)N[C@H]3CCOc4ccc(Cl)cc43)cnc2c1-c1ccc(F)c(F)c1` [Example 101], 5.03; that for `Cc1nn2c(C(C)C)c(C(=O)N[C@H]3CCOc4ccc(Cl)cc43)cnc2c1-c1c(F)cccc1F` [Example 97], 4.61.
The same measure, in the same setting: the result for `Cc1nn2c(C(C)C)c(C(=O)N[C@H]3CCOc4ccc(Cl)cc43)cnc2c1-c1ccccc1F` [Example 93] reads 4.67; that for `Cc1nn2c(C(C)C)c(C(=O)N[C@H]3CCOc4ccc(Cl)cc43)cnc2c1-c1cccc(Cl)c1` [Example 105], 5.36.

The target of a further series is C. elegans Slo-1a (Caenorhabditis elegans, UniProt Q95V25). Put plainly: In vitro assay 1: C. elegans Slo-1a, action at a recombinant C. elegans CHO cell line (membrane potential measurement).
Chain of C. elegans Slo-1a (Q95V25 whole entry): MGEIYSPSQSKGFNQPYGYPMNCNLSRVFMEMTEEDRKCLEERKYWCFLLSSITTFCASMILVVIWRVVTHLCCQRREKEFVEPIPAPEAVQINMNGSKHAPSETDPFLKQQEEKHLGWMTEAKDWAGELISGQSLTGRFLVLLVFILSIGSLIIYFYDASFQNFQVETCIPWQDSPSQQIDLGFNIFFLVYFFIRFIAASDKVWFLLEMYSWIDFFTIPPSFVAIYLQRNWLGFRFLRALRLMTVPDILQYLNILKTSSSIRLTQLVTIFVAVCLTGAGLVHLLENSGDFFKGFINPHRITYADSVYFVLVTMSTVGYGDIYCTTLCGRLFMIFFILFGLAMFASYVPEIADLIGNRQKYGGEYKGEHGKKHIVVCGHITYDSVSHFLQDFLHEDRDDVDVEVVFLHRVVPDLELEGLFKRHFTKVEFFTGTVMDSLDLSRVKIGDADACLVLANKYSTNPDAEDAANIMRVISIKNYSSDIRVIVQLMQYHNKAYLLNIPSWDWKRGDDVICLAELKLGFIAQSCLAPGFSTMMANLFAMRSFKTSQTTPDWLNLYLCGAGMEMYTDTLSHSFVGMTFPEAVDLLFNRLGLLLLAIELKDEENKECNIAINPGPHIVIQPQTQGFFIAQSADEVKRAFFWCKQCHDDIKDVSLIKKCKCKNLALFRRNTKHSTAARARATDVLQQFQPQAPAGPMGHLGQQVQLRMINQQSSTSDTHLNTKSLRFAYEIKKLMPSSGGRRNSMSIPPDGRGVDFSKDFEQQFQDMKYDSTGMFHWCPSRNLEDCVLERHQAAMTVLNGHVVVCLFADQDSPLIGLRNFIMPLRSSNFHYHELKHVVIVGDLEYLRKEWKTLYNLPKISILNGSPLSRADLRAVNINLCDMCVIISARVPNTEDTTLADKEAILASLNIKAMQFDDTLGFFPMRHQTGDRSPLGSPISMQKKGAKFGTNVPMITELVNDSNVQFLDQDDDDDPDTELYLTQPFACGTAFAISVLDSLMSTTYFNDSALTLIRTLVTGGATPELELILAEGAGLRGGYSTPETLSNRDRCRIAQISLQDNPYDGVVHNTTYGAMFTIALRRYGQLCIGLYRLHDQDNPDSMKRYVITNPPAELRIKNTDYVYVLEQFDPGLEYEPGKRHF
Details: not given
Regarding `CC(C)c1c(C(=O)N[C@H]2CCc3ccccc32)cnc2c(-c3cc(Cl)cc(Cl)c3)c(C(F)(F)F)nn12` [Example 167], the half-maximal effective concentration (EC50) is 39.8 nM.
Still for that read-out and setting: to `Cc1nn2c(C(C)C)c(C(=O)NC3CCCc4ccccc43)cnc2c1-c1cccc(C(F)(F)F)c1` (stereo not drawn) [Example 2] belongs 31.6 nM; to `Cc1nn2c(C(C)C)c(C(=O)N[C@H]3CCc4ccccc43)cnc2c1-c1cc(F)cc(C(F)(F)F)c1` [Example 292], 39.8 nM; to `Cc1nn2c(C(C)C)c(C(=O)N[C@H]3CCc4ccccc43)cnc2c1-c1ccc(N2CCOCC2)cc1` [Example 326], 1260 nM.
For `Cc1nn2c(C(C)C)c(C(=O)N[C@H]3CCc4ccccc43)cnc2c1-c1cnn(C)c1` [Example 303], the concentration giving a half-maximal response (EC50) is 794 nM.
As for `COCc1c(C(=O)N[C@H]2CCc3ccccc32)cnc2c(-c3cccc(C(F)(F)F)c3)c(C)nn12` [Example 305], the EC50 was 63.1 nM.
In the case of `Cc1nn2c(C)c(C(=O)N[C@H]3CCCc4ccccc43)cnc2c1-c1cc(Cl)cc(Cl)c1` [Example 61], the concentration for a half-maximal effect (EC50) is 6310 nM.
In the case of `COc1ccc(-c2c(C)nn3c(C(C)C)c(C(=O)N[C@H]4CCc5ccccc54)cnc23)cc1` [Example 333], the 50% effective concentration (EC50) was 100 nM.
Consider `Cc1nn2c(C(C)C)c(C(=O)N[C@H]3CCc4ccccc43)cnc2c1-c1ccncc1` [Example 318], for which the concentration for a half-maximal effect (EC50) is 1000 nM.
Same read-out and setting: the result for `Cc1nn2c(C(C)C)c(C(=O)N[C@H]3CCCc4ccccc43)cnc2c1-c1ccc(C(C)C)cc1` [Example 126] reads 200 nM.
The same measure, in the same setting: the result for `Cc1nn2c(C(C)C)c(C(=O)N[C@H]3CCCc4ccccc43)cnc2c1-c1cc(Cl)cc(Cl)c1` [Example 7] reads 20 nM; that for `Cc1nn2c(C(C)C)c(C(=O)N[C@H]3CCc4ccccc43)cnc2c1-c1ccc2c(c1)OC(F)(F)O2` [Example 123], 10 nM; that for `Cc1nn2c(C(C)C)c(C(=O)N[C@H]3CCc4ccccc43)cnc2c1-c1cncnc1` [Example 296], 7940 nM.
Turning to `CCc1c(C(=O)N[C@H]2CCc3ccccc32)cnc2c(-c3cccc(C(F)(F)F)c3)c(C)nn12` [Example 306], the half-maximal effective concentration (EC50) is 50.1 nM.
`Cc1nn2c(C(C)C)c(C(=O)N[C@H]3CCc4ccccc43)cnc2c1-c1ccc(C#N)c(C(F)(F)F)c1` [Example 293]: the half-maximal effective concentration (EC50) was 316 nM.
Same read-out and setting: to `CCOc1ccc(-c2c(C)nn3c(C(C)C)c(C(=O)N[C@H]4CCc5ccccc54)cnc23)cc1` [Example 339] belongs 2510 nM.
Still for that read-out and setting: the result for `Cc1nn2c(C(C)C)c(C(=O)N[C@H]3CCCc4ccccc43)cnc2c1-c1cc(Cl)cc(C(F)(F)F)c1` [Example 124] reads 7.94 nM; that for `Cc1c(C(=O)N[C@H]2CCc3ccccc32)cnc2c(-c3ccccc3Cl)c(C(F)(F)F)nn12` [Example 81], 398 nM.
The same measure, in the same setting: to `Cc1nn2c(C3CC3)c(C(=O)N[C@H]3CCOc4ccccc43)cnc2c1-c1cc(F)cc(F)c1F` [Example 557] belongs 2 nM; to `Cc1nn2c(C)c(C(=O)N[C@H]3CCc4ccccc43)cnc2c1-c1cccc(Cl)c1` [Example 59], 79.4 nM.

Staying with this series, now noted: CHO cells expressing C. elegans Slo-1a; voltage sensitive dye, FLIPR Tetra; negative decadic logarithm of EC50.
Turning to `Cc1nn2c(CN(C)C)c(C(=O)N[C@H]3CCOc4ccccc43)cnc2c1-c1cccc(Cl)c1Cl` [Example 523], the pE50 stood at 8.0.
On the same count and under the same terms, the result for `Cc1ccc2c(c1)[C@@H](NC(=O)c1cnc3c(-c4ccccc4F)c(C)nn3c1C(C)C)CCC2` [Example 110] reads 6.7; that for `Cc1nn2c(C(C)C)c(C(=O)N[C@H]3CCOc4ccccc43)cnc2c1-c1ccc(C(F)(F)F)c(F)c1` [Example 187], 7.9; that for `Cc1nn2c(N(C)CCS(C)(=O)=O)c(C(=O)N[C@H]3CCOc4ccccc43)cnc2c1-c1cc(Cl)cc(Cl)c1` [Example 541], 8.0.
Still for that read-out and setting: the result for `COc1c(F)cc(F)c(-c2c(C)nn3c(C(C)C)c(C(=O)N[C@H]4CCOc5ccccc54)cnc23)c1F` [Example 235] reads 9.2.
Same read-out and setting: the result for `Cc1nn2c(C(C)C)c(C(=O)N[C@H]3CCCc4ccccc43)cnc2c1-c1cnn(CC(F)(F)F)c1` [Example 359] reads 7.9; that for `Cc1nn2c(C(C)C)c(C(=O)N[C@H]3CCc4ccccc43)cnc2c1-c1cnn(CC(F)(F)F)c1` [Example 310], 8; that for `Cc1nn2c(C3CC3)c(C(=O)N[C@H]3CCOc4ccccc43)cnc2c1-c1cnn(CC(F)(F)F)c1` [Example 468], 7.8.
`Cc1nn2c(C(C)C)c(C(=O)N[C@H]3CCOc4ccc(Cl)cc43)cnc2c1-c1ccc(F)c(F)c1` [Example 101]: the pE50 stood at 6.6.
Still for that read-out and setting: the result for `Cc1nn2c(C(C)C)c(C(=O)N[C@H]3CCOc4ccc(Cl)cc43)cnc2c1-c1c(F)cccc1F` [Example 97] reads 7.2; that for `Cc1nn2c(NC3CC3)c(C(=O)N[C@H]3CCOc4ccccc43)cnc2c1-c1cc(F)cc(F)c1` [Example 539], 6.8.
Same read-out and setting: to `CSCCN(C)c1c(C(=O)N[C@H]2CCOc3ccccc32)cnc2c(-c3cccc(Cl)c3Cl)c(C)nn12` [Example 529] belongs 8.1; to `Cc1nn2c(C(C)C)c(C(=O)N[C@H]3CCOc4ccc(Cl)cc43)cnc2c1-c1ccccc1F` [Example 93], 7.
Regarding `Cc1nn2c(N(C)CC[S+](C)[O-])c(C(=O)NC3CCOc4ccccc43)cnc2c1-c1cc(Cl)cc(Cl)c1` (mixture of isomers) [Example 540], the pE50 turned out to be 7.7.
For `Cc1nn2c(C(C)C)c(C(=O)N[C@H]3CCOc4ccc(Cl)cc43)cnc2c1-c1cccc(Cl)c1` [Example 105], the pE50 was 6.8.
On the same count and under the same terms, the result for `Cc1nn2c(C(C)C)c(C(=O)NC3CCOc4ccc(F)cc43)cnc2c1-c1c(F)cccc1Cl` (racemic) [Example 254] reads 8.1.
